How the values were obtained:
[1] = tested on: Trypanosoma brucei rhodesiense; experiment: Antitrypanosomal activity against Trypanosoma brucei rhodesiense STIB900 by Alamar blue growth inhibition assay; format: functional, organism-based
L6 = experiment: Cytotoxicity against rat L6 cells; format: cell-based
[2] = Selectivity index, ratio of IC50 for rat L6 cells to IC50 for Trypanosoma brucei rhodesiense STIB900; format: toxicity, cell-based; conditions: read-out: Ratio IC50

SMILES | IC50 [1] | IC50 (L6) | selectivity ratio [2]
CN1C(=O)C2=Cc3ccccc3CCN2c2ccc([N+](=O)[O-])cc21 | 191 µM | > 311 µM | > 1.6
O=C(NN(Cc1ccccc1)Cc1ccccc1)c1cc([N+](=O)[O-])ccc1F | 17.1 µM | 19.3 µM | 1.1
O=C1C[N+]2(CCCCC2)c2ccc([N+](=O)[O-])cc21 | 213 µM | 84.9 µM | 0.4
CN1C(=O)C2CCCCN2c2ccc([N+](=O)[O-])cc21 (stereo not drawn) | 154 µM | 102 µM | 0.7
CCOc1ccc([N+](=O)[O-])cc1C(=O)NN(c1ccccc1)c1ccccc1 | 14.2 µM | 185 µM | 13
O=C(NN1CCc2ccccc2C1)c1cc([N+](=O)[O-])ccc1F | 23.1 µM | > 317 µM | > 13.7
COc1nn(Cc2ccccc2F)c2ccc([N+](=O)[O-])cc12 | 191 µM | > 332 µM | > 1.7
O=c1c2cc([N+](=O)[O-])ccc2n(Cc2ccccc2)n1Cc1ccccc1 | 49.5 µM | 37.3 µM | 0.8
O=C(NCc1cc([N+](=O)[O-])ccc1N1CCc2ccccc2C1)NCc1cc([N+](=O)[O-])ccc1N1CCc2ccccc2C1 | 7.1 µM | > 168 µM | > 23.6
CCCCn1c2ccc([N+](=O)[O-])cc2c(=O)n1Cc1ccccc1 | 48.9 µM | 46.7 µM | 1
C[n+]1cccc2c(=O)n3n(c21)Cc1ccccc1C3 | 241 µM | > 263 µM | > 1.1
O=C(NN1Cc2ccccc2C1)c1ccccc1F | 166 µM | 241 µM | 1.5
CON1C(=O)C2CCCCN2c2ccc([N+](=O)[O-])cc21 (stereo not drawn) | 122 µM | 67.4 µM | 0.6
O=C1CN(CCCCCN2CCCCC2)c2ccc([N+](=O)[O-])cc2N1 | 21.2 µM | 97.1 µM | 4.6
O=C(NN1Cc2ccccc2C1)c1cccnc1Cl | > 365 µM | > 365 µM | 
O=[N+]([O-])c1ccc2c(c1)C([O-])=N[N+]21CCCCCC1 | 192 µM | > 382 µM | > 2
[O-]C1=N[N+]2(CCCCC2)c2ccccc21 | > 494 µM | > 494 µM | 
O=[N+]([O-])c1ccc2[nH]nc(OCc3ccccc3Cl)c2c1 | 73.4 µM | 30.5 µM | 0.4
CN(C)CCCOc1nn(Cc2ccccc2F)c2ccc([N+](=O)[O-])cc12 | 5.2 µM | 32 µM | 6.1
CCCn1c2ccc([N+](=O)[O-])cc2c(=O)n1Cc1ccccc1 | 20 µM | 77.4 µM | 3.9
O=C(NN1CCCCC1)c1cc([N+](=O)[O-])ccc1Cl | 212 µM | > 352 µM | > 1.7
COc1nn(Cc2ccccc2Cn2nc(OC)c3cc([N+](=O)[O-])ccc32)c2ccc([N+](=O)[O-])cc12 | 119 µM | > 204 µM | > 1.7
CSc1ccc(OCc2ncc([N+](=O)[O-])n2C)cc1 [FEXINIDAZOLE] | 1.71 µM |  | > 322
O=c1[nH]n(-c2ccccc2)c2ccc([N+](=O)[O-])cc12 | 109 µM | 158 µM | 1.4
O=C(NN(Cc1ccccc1)Cc1ccccc1)c1cc([N+](=O)[O-])ccc1Cl | 37.6 µM | 41.7 µM | 1.1
Cn1c2ccc([N+](=O)[O-])cc2c(=O)n1-c1ccccc1 | 138 µM | 66.5 µM | 0.5
O=c1c2cc([N+](=O)[O-])ccc2[nH]n1Cc1ccccn1 | 252 µM | 286 µM | 1.1
O=C(NN1Cc2ccccc2C1)c1cc([N+](=O)[O-])ccc1F | 40.2 µM | > 331 µM | > 8.3

SMILES | IC50 [1] | IC50 (L6) | selectivity ratio [2]
CN1C(=O)CN(CCCCCN2CCCCC2)c2ccc([N+](=O)[O-])cc21 | 14.6 µM | 52.3 µM | 3.6
CN1C(=O)C2Cc3ccccc3CCN2c2ccc([N+](=O)[O-])cc21 (stereo not drawn) | 63.4 µM | 15.1 µM | 0.2
O=[N+]([O-])c1ccc2c(c1)CC([O-])=N[N+]21CCCCC1 | 198 µM | 324 µM | 1.6
COc1nn(Cc2cccc(Cn3nc(OC)c4cc([N+](=O)[O-])ccc43)n2)c2ccc([N+](=O)[O-])cc12 | 57.6 µM | 151 µM | 2.6
O=C(NN1CCc2ccccc2C1)c1cc([N+](=O)[O-])ccc1Cl | 55.5 µM | 22 µM | 0.4
O=[N+]([O-])c1ccc2c(c1)c(OCc1ccccc1)nn2Cc1ccccc1-c1ccccc1Cn1nc(OCc2ccccc2)c2cc([N+](=O)[O-])ccc21 | 80.5 µM | > 139 µM | > 1.7
O=C(Cc1cc([N+](=O)[O-])ccc1F)NN1Cc2ccccc2C1 | 180 µM | 168 µM | 0.9
Cn1c2ccc([N+](=O)[O-])cc2c(=O)n1Cc1ccccc1 | 8.2 µM | 43.4 µM | 5.3
CN(C)CCOc1nn(Cc2ccccc2)c2ccc([N+](=O)[O-])cc12 | 10.8 µM | 57.6 µM | 5.3
O=C(NN(Cc1ccccc1)Cc1ccccc1)c1ccccc1 [N',N'-DIBENZYLBENZOHYDRAZIDE] | > 316 µM | > 316 µM | 
COc1nn(Cc2ccccc2Cn2nc(OC)c3ccccc32)c2ccccc12 | 101 µM | 44.7 µM | 0.4
O=C(NN1Cc2ccccc2C1)c1cc([N+](=O)[O-])ccc1Cl | 97.3 µM | 19.8 µM | 0.2
CN(C)NC(=O)c1cc([N+](=O)[O-])ccc1Cl | > 410 µM | > 410 µM | 
O=c1c2cc([N+](=O)[O-])ccc2[nH]n1Cc1ccccc1 | 163 µM | 234 µM | 1.4
O=c1c2cc([N+](=O)[O-])ccc2n2n1Cc1ccccc1C2 | 66.8 µM | 222 µM | 3.3
O=C(NN1Cc2ccccc2C1)c1ccccc1 | > 419 µM | 68.4 µM | 0.2
COc1cc([C@@H]2c3cc4c(cc3[C@H](O)[C@H]3COC(=O)[C@H]23)OCO4)cc(OC)c1OC [PODOFILOX] |  | 0.019 µM | 
O=c1c2cc([N+](=O)[O-])ccc2n2n1Cc1ccccc1CC2 | 86.4 µM | > 338 µM | > 4
O=C(Cc1cc([N+](=O)[O-])ccc1F)NN1CCCCC1 | 320 µM | > 355 µM | > 1.1
O=C(NN(c1ccccc1)c1ccccc1)c1cc([N+](=O)[O-])ccc1F | 5.6 µM | 3.2 µM | 0.6
Cn1[nH]c(=O)c2cc([N+](=O)[O-])ccc21 | 313 µM | > 517 µM | > 1.7
O=C(NN(c1ccccc1)c1ccccc1)c1cc([N+](=O)[O-])ccc1Cl | 7.4 µM | 13.3 µM | 1.8
CN1C(=O)C2Cc3ccccc3CN2c2ccc([N+](=O)[O-])cc21 (stereo not drawn) | 61.1 µM | 18.7 µM | 0.3
Cn1c(=O)c2cc([N+](=O)[O-])ccc2n1Cc1ccccc1 | 163 µM | 166 µM | 1
O=C(NN1Cc2ccccc2CN1)c1cc([N+](=O)[O-])ccc1Cl | 82.2 µM | 180 µM | 2.2
O=c1[nH]n(Cc2ccccc2F)c2ccc([N+](=O)[O-])cc12 | 168 µM | 210 µM | 1.3
O=C(NN(Cc1ccccc1)Cc1ccccc1)c1ccccc1Cl | 55.9 µM | 50.7 µM | 0.9

From ChEMBL document CHEMBL2046395, “Discovery of nitroheterocycles active against African trypanosomes. In vitro screening and preliminary SAR studies” (Bioorg Med Chem Lett, 2012)
